Experimental data reported in BindingDB's records for patent US20240317745 (Humanwell Pharmaceutical US, 2024).

Each molecule was assayed against Sigma non-opioid intracellular receptor 1 (Cavia porcellus, UniProt Q60492) (assay: Binding Affinity Assay).
Procedure: An appropriate amount of homogenization buffer was added to the prepared membrane, and was dispersed into a suspension using a homogenizer, protein concentration was measured to be 4 mg/ml. 100 micrograms of protein were added to each well of a 96-well plate, with a volume of 90 μl. […] [3H]-(+)-pentazocine (Perkin-Elmer, Cat #NET1056250UC) was added to each well (final concentration of 10 nM). The 96-well plate was incubated in a constant temperature water bath (25° C., 180 minutes). […] After washing, the samples were dried in a 37° C. oven.

Sequence of Sigma non-opioid intracellular receptor 1 (Q60492 whole entry): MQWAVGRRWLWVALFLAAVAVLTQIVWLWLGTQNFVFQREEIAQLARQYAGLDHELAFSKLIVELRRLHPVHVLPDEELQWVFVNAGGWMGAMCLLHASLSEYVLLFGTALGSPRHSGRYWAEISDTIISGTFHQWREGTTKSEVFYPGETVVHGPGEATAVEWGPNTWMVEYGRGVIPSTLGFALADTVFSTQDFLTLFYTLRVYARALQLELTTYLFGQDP

Row | Ki [nM] | SMILES
1 | 80.3 | Fc1ccc(-c2cc(COCCN3CCOCC3)on2)cc1F [US20240317745, Compound 1]
2 | 308 | OC1CCN(Cc2cc(-c3ccc(F)c(F)c3)no2)CC1 [US20240317745, Compound 37]
3 | 39.6 | OC1CCN(CCOCc2cc(-c3ccc(Cl)c(Cl)c3)no2)CC1 [US20240317745, Compound 65]
4 | 84.4 | Clc1ccc(-c2noc(COCCN3CCOCC3)c2Br)cc1Cl [US20240317745, Compound 74]
